# Experimental data reported in ChEMBL document CHEMBL4311942, “Design of Trp-Rich Dodecapeptides with Broad-Spectrum Antimicrobial Potency and Membrane-Disruptive Mechanism” (J Med Chem, 2019).
# Active and inactive are the calls of the source. No cut-off for these calls is given here. Where a SMILES comes first, the peptide text is derived from it.
# How the values were obtained:
# Staphylococcus aureus [1] = assay: Induction of cell membrane disruption in Staphylococcus aureus ATCC 29213 assessed as propidium iodide-positive cells at 2 times MIC after 30 mins by flow cytometric analysis (reference value: 0.3%)
# Staphylococcus aureus [2] = assay: Antibacterial activity against Staphylococcus aureus ATCC 25923 incubated for 18 to 24 hrs by broth microdilution method; type: functional
# Staphylococcus aureus [3] = assay: Antibacterial activity against Staphylococcus aureus ATCC 29213 incubated for 2 hrs in presence of sodium phosphate buffer at pH 2 by broth microdilution method; type: functional; conditions: ATCC 29213, 2 h
# Lipopolysaccharide (LPS) = assay: Displacement of BODIPY-TR-cadaverine from Escherichia coli O111:B4 LPS by spectrofluorophotometric method
# Escherichia coli [4] = assay: Antibacterial activity against Escherichia coli ATCC 25922 in presence of MgCl2 by broth microdilution method; type: functional
# Escherichia coli [5] = assay: Antibacterial activity against Escherichia coli ATCC 25922 in presence of 50% serum by broth microdilution method; type: functional
# Staphylococcus aureus [6] = assay: Antibacterial activity against Staphylococcus aureus ATCC 29213 in presence of MgCl2 by broth microdilution method; type: functional
# Escherichia coli [7] = assay: Antibacterial activity against Escherichia coli ATCC 25922 incubated for 2 hrs in presence of sodium phosphate buffer at pH 10 by broth microdilution method; type: functional; conditions: ATCC 25922, 2 h
# Escherichia coli [8] = assay: Antibacterial activity against Escherichia coli ATCC 25922 in presence of 25% serum by broth microdilution method; type: functional
# Staphylococcus aureus [9] = assay: Antibacterial activity against Staphylococcus aureus ATCC 29213 incubated for 2 hrs in presence of sodium phosphate buffer at pH 4 by broth microdilution method; type: functional; conditions: ATCC 29213, 2 h
# Staphylococcus aureus [10] = assay: Bactericidal activity against Staphylococcus aureus ATCC 29213 at 4 times MIC after 30 mins by time kill assay; type: functional, organism-based
# [11] = Drug localization in Escherichia coli ATCC 25922 at 1 to 2 times MIC incubated for 1 hr using FITC-labelled peptides by propidium iodide-staining based regular fluorescent microscopy; type: ADME
# [12] = Cytotoxicity against mouse RAW264.7 cells assessed as cell survival at <= 32 uM after 24 hrs by MTT assay relative to control; type: cell-based; conditions: RAW264.7 cells, up to 32 µM, read-out: Activity
# Staphylococcus aureus [13] = assay: Induction of cell membrane disruption in Staphylococcus aureus ATCC 29213 assessed as collapsed membrane at 1 to 2 times MIC after 60 mins by transmission electron microscopy; type: organism-based
# Staphylococcus aureus [14] = assay: Antibacterial activity against Staphylococcus aureus ATCC 29213 in presence of 12.5% serum by broth microdilution method; type: functional
# Staphylococcus aureus [15] = assay: Antibacterial activity against Staphylococcus aureus ATCC 29213 incubated for 18 to 24 hrs by broth microdilution method; type: functional
# Escherichia coli [16] = assay: Antibacterial activity against Escherichia coli ATCC 25922 incubated for 2 hrs in presence of sodium phosphate buffer at pH 12 by broth microdilution method; type: functional; conditions: ATCC 25922, 2 h
# Staphylococcus aureus [17] = assay: Antibacterial activity against Staphylococcus aureus ATCC 29213 in presence of KCl by broth microdilution method; type: functional
# [18] = Drug localization in Staphylococcus aureus ATCC 29213 at 2 times MIC incubated for 1 hr using FITC-labelled peptides by propidium iodide-staining based super resolution fluorescent microscopy; type: ADME
# Escherichia coli [19] = assay: Induction of outer membrane permeabilization in Escherichia coli UB1005 assessed as increase in NPN uptake at 4 uM by spectrofluorophotometric assay relative to control
# Escherichia coli [20] = assay: Antibacterial activity against Escherichia coli ATCC 25922 incubated for 18 to 24 hrs using FITC-labelled peptide by broth microdilution method; type: functional, organism-based
# [21] = Drug localization in Escherichia coli ATCC 25922 at 2 times MIC incubated for 1 hr using FITC-labelled peptides by propidium iodide-staining based super resolution fluorescent microscopy; type: ADME
# Salmonella typhimurium = assay: Antibacterial activity against Salmonella enterica serovar typhimurium C77-31 incubated for 18 to 24 hrs by broth microdilution method; type: functional, Salmonella enterica subsp. enterica serovar Typhimurium
# [22] = tested on: Staphylococcus epidermidis; assay: Antibacterial activity against Staphylococcus epidermidis ATCC 12228 incubated for 18 to 24 hrs by broth microdilution method; type: functional
# Escherichia coli [23] = assay: Antibacterial activity against ciprofloxacin-resistant Escherichia coli ATCC 25922 incubated for 18 to 24 hrs; type: functional
# Escherichia coli [24] = assay: Antibacterial activity against Escherichia coli ATCC 25922 in presence of 12.5% serum by broth microdilution method; type: functional
# Escherichia coli [25] = assay: Induction of cell membrane disruption in Escherichia coli ATCC 25922 assessed as appearance of partial membrane corrugation at 1 times MIC after 60 mins by field emission scanning electron microscopy; type: organism-based
# Escherichia coli [26] = assay: Antibacterial activity against Escherichia coli UB1005 incubated for 18 to 24 hrs by broth microdilution method; type: functional
# Acinetobacter baumannii = assay: Antibacterial activity against Acinetobacter baumannii AB1901 clinical isolate incubated for 18 to 24 hrs by broth microdilution method; type: functional
# Escherichia coli [27] = assay: Antibacterial activity against Escherichia coli ATCC 25922 incubated for 18 to 24 hrs by broth microdilution method; type: functional
# Staphylococcus aureus [28] = assay: Antibacterial activity against Staphylococcus aureus ATCC 29213 in presence of CaCl2 by broth microdilution method; type: functional
# Escherichia coli [29] = assay: Antibacterial activity against Escherichia coli ATCC 25922 in presence of H202 by broth microdilution method; type: functional
# Escherichia coli [30] = assay: Antibacterial activity against Escherichia coli ATCC 25922 in presence of NaCl by broth microdilution method; type: functional
# Escherichia coli [31] = assay: Antibacterial activity against Escherichia coli ATCC 25922 incubated for 2 hrs in presence of sodium phosphate buffer at pH 4 by broth microdilution method; type: functional; conditions: ATCC 25922, 2 h
# Staphylococcus aureus [32] = assay: Induction of cell membrane disruption in Staphylococcus aureus ATCC 29213 after 30 mins by propidium iodide-staining based flow cytometric analysis; type: organism-based
# Escherichia coli [33] = assay: Induction of cell membrane disruption in Escherichia coli ATCC 25922 assessed as appearance of cytoplasmic clear zones at 1 times MIC after 60 mins by transmission electron microscopy; type: organism-based
# [34] = Drug localization in Staphylococcus aureus ATCC 29213 at 1 to 2 times MIC incubated for 1 hr using FITC-labelled peptides by propidium iodide-staining based regular fluorescent microscopy; type: ADME
# Escherichia coli [35] = assay: Bactericidal activity against Escherichia coli ATCC 25922 at 1 times MIC after 120 mins by time kill assay; type: functional, organism-based
# Escherichia coli [36] = assay: Bactericidal activity against Escherichia coli ATCC 25922 at 4 times MIC after 60 mins by time kill assay relative to control; type: functional
compound,measurement,setting,value
CC(C)C[C@H](NC(=O)[C@H](CCCNC(=N)N)NC(=O)[C@H](Cc1c[nH]c2ccccc12)NC(=O)[C@H](CCCNC(=N)N)NC(=O)[C@@H](NC(=O)[C@H](CCCCN)NC(=O)[C@H](Cc1c[nH]c2ccccc12)NC(=O)[C@H](CCCNC(=N)N)NC(=O)[C@H](CC(C)C)NC(=O)[C@H](CCCNC(=N)N)NC(=O)[C@@H](N)Cc1c[nH]c2ccccc12)[C@@H](C)O)C(=O)N[C@@H](CCCCN)C(N)=O (H-WRLRWKTRWRLK-NH2),Activity,Staphylococcus aureus [1],97.7%
same,MIC,Staphylococcus aureus [2],2 µM
same,MIC,Staphylococcus aureus [3],4 µM
same,Activity,Lipopolysaccharide (LPS),Dose-dependent effect
same,MIC,Escherichia coli [4],2 µM
same,MIC,Escherichia coli [5],8 µM
same,MIC,Staphylococcus aureus [6],2 µM
same,MIC,Escherichia coli [7],4 µM
same,MIC,Escherichia coli [8],4 µM
same,MIC,Staphylococcus aureus [9],4 µM
same,Activity,Staphylococcus aureus [10],Active
same,Drug uptake,[11],Active
same,viability at 24 h,[12],≥ 70%
same,Activity,Staphylococcus aureus [13],Active
same,MIC,Staphylococcus aureus [14],4 µM
same,MIC,Staphylococcus aureus [15],4 µM
same,MIC,Escherichia coli [16],2 µM
same,MIC,Staphylococcus aureus [17],2 µM
same,Drug uptake,[18],Active
same,Activity,Escherichia coli [19],90%
same,Activity,Escherichia coli [20],Active
same,Drug uptake,[21],Active
same,MIC,Salmonella typhimurium,2 µM
same,MIC,[22],4 µM
same,MIC,Escherichia coli [23],4 µM
same,MIC,Escherichia coli [24],4 µM
same,Activity,Escherichia coli [25],Active
same,MIC,Escherichia coli [26],2 µM
same,MIC,Acinetobacter baumannii,4 µM
same,MIC,Escherichia coli [27],4 µM
same,MIC,Staphylococcus aureus [28],4 µM
same,MIC,Escherichia coli [29],2 µM
same,MIC,Escherichia coli [30],4 µM
same,MIC,Escherichia coli [31],2 µM
same,Activity,Staphylococcus aureus [32],Dose-dependent effect
same,Activity,Escherichia coli [33],Active
same,Drug uptake,[34],Active
same,Activity,Escherichia coli [35],inactive
same,Activity,Escherichia coli [36],100%
